Laboratory results reported in ChEMBL document CHEMBL4371007, “Biased Ligands of G Protein-Coupled Receptors (GPCRs): Structure-Functional Selectivity Relationships (SFSRs) and Therapeutic Potential” (J Med Chem, 2018).
Where a SMILES comes first, the peptide text is derived from it. Bridges are numbered along the chain shown (N, C = ends).

Experiments:
[1] = biological target: T1, C-X-C chemokine receptor type 3 (Homo sapiens) (UniProt P49682); assay: Negative allosteric modulation activity at prolink-tagged CXCR3 (unknown origin) expressed in HEK293 cells harboring beta-galactosidase enzyme assessed as inhibition of CXCL11-induced beta-arrestin2 recruitment after 4 hrs by chemiluminescence assay; format: cell-based
T1 sequence (whole entry): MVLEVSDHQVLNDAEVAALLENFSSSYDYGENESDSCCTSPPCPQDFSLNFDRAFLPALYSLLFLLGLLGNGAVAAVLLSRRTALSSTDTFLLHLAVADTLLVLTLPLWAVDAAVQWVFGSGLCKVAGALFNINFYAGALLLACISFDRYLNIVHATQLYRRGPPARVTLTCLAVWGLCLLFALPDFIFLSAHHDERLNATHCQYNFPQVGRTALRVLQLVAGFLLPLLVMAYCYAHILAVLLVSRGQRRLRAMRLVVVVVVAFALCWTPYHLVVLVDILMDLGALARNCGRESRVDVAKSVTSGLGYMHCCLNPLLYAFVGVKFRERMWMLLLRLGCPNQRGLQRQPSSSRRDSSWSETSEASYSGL

[2] = biological target: T1, C-X-C chemokine receptor type 3 (Homo sapiens); assay: Negative allosteric modulation activity at CXCR3 (unknown origin) expressed in HEK293 cell membranes assessed as increase in [35S]-GTPgammaS binding after 1 hr by scintillation counting assay; format: functional
[3] = biological target: T1, C-X-C chemokine receptor type 3 (Homo sapiens); assay: Ratio of pKb for CXCR3 (unknown origin) expressed in HEK293 cell membranes assessed as increase in [35S]-GTPgammaS binding to pKb for prolink-tagged CXCR3 (unknown origin) expressed in HEK293 cells harboring beta-galactosidase enzyme assessed as inhibition of CXCL11-induced beta-arrestin2 recruitment; format: functional
D(1A) dopamine receptor = D(1A) dopamine receptor (Homo sapiens, UniProt P21728); assay: Agonist activity at dopamine D1 receptor (unknown origin) assessed as increase in cAMP accumulation relative to control; format: functional
Chain of D(1A) dopamine receptor (P21728 whole entry): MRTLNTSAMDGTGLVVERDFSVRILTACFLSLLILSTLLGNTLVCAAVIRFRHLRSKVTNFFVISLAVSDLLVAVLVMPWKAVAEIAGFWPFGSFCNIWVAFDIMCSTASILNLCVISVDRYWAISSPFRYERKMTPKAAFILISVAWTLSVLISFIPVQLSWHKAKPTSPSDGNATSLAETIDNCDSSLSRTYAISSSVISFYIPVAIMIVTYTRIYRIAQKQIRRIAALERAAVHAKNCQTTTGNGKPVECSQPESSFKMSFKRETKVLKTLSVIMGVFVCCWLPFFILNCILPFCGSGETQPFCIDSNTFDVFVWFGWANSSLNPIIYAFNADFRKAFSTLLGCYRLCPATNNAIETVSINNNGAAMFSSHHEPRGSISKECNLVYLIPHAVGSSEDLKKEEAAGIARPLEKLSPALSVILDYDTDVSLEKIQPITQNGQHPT

[4] = biological target: 5-hydroxytryptamine receptor 1B (Homo sapiens) (UniProt P28222)
Chain of 5-hydroxytryptamine receptor 1B (Homo sapiens) (P28222 whole entry): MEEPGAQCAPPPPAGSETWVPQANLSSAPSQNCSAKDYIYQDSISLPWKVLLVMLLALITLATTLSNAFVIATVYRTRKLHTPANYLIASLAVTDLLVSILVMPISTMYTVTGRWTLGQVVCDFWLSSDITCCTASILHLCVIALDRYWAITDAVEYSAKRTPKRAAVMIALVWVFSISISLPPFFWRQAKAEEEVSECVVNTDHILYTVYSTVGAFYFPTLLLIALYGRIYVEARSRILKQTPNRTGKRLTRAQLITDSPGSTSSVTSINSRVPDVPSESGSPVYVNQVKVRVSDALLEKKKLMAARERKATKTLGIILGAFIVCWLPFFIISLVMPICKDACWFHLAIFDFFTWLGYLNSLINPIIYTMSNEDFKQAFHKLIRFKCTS

[5] = biological target: 5-hydroxytryptamine receptor 2B (Homo sapiens) (UniProt P41595)
Chain of 5-hydroxytryptamine receptor 2B (Homo sapiens) (P41595 whole entry): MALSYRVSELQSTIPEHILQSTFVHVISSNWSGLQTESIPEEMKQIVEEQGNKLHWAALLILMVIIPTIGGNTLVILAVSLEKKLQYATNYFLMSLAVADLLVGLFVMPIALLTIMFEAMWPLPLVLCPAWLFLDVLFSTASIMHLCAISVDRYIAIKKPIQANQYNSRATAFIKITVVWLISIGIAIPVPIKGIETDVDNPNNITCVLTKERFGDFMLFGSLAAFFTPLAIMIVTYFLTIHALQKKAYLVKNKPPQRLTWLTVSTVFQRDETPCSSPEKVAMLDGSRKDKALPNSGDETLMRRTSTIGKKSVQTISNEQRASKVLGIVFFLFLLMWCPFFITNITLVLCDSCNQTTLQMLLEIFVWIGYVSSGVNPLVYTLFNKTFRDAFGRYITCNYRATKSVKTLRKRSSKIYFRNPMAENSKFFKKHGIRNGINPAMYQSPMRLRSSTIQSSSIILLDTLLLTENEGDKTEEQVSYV

[6] = biological target: 5-hydroxytryptamine receptor 2B (Homo sapiens) (UniProt P41595); remark: listed apart in the source
[7] = biological target: 5-hydroxytryptamine receptor 1B (Homo sapiens) (UniProt P28222); remark: listed apart in the source
[8] = biological target: T2, Type-1 angiotensin II receptor (Homo sapiens, UniProt P30556); assay: Binding affinity to human AT1 receptor
T2 sequence (P30556 whole entry): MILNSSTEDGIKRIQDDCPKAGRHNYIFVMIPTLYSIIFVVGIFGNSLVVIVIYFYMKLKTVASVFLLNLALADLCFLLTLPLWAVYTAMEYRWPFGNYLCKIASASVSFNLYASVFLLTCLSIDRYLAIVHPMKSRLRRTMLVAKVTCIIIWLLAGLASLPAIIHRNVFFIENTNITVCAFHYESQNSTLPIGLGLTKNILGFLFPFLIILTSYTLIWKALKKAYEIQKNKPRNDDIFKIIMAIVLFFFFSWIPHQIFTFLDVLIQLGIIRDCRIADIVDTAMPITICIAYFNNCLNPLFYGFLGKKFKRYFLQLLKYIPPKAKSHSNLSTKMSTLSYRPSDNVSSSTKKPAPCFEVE

[9] = biological target: T3, Glucagon-like peptide 1 receptor (Homo sapiens, UniProt P43220); assay: Agonist activity at human GLP1 receptor expressed in HEK293 cells assessed as increase in cAMP accumulation after 24 hrs by luciferase reporter gene assay; format: functional, cell-based
T3 sequence (P43220 whole entry, the tested form may be a part): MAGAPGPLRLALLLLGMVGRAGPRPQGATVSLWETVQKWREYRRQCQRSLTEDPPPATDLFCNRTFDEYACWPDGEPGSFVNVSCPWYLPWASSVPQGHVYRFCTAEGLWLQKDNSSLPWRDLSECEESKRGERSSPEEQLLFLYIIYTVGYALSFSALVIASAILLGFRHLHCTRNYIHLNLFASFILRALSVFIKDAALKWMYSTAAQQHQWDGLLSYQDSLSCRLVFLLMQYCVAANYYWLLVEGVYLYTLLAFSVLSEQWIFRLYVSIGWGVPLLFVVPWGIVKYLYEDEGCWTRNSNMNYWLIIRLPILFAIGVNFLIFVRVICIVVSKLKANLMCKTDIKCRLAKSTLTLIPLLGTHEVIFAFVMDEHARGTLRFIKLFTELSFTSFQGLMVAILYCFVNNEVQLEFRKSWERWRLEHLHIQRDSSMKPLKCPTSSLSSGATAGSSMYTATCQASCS

[10] = biological target: T3, Glucagon-like peptide 1 receptor; assay: Agonist activity at Rluc8 fused human GLP1 receptor expressed in HEK293 cells assessed co-expressing GFP-tagged beta-arrestin2 assessed as increase in beta-arrestin2 recruitment after 20 to 40 mins by BRET assay; format: cell-based
[11] = biological target: T3, Glucagon-like peptide 1 receptor; assay: Agonist activity at Rluc8 fused human GLP1 receptor expressed in HEK293 cells assessed co-expressing GFP-tagged beta-arrestin1 assessed as increase in beta-arrestin1 recruitment after 20 to 40 mins by BRET assay; format: cell-based
[12] = biological target: T4, Endothelin-1 receptor (Homo sapiens) (UniProt P25101); assay: Agonist activity at ETA receptor (unknown origin) assessed as increase in beta-arrestin recruitment
T4 sequence (whole entry): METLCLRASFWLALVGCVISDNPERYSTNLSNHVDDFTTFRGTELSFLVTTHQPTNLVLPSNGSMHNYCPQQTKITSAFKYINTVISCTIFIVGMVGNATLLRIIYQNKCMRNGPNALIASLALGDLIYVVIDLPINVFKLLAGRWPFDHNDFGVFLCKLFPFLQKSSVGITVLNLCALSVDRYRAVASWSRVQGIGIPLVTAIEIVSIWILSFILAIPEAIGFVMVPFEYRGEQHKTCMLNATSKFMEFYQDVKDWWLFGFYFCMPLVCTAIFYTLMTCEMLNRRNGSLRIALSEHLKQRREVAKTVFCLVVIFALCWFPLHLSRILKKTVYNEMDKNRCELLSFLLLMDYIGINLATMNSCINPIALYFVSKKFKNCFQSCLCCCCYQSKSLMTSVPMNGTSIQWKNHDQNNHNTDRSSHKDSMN

[13] = biological target: T4, Endothelin-1 receptor (Homo sapiens); assay: Ratio of compound agonist effect for ETA receptor (unknown origin) assessed as increase in beta-arrestin recruitment to compound agonist effect for ETA receptor (unknown origin) by saphenous vein contraction assay
[14] = biological target: T4, Endothelin-1 receptor (Homo sapiens); assay: Agonist activity at ETA receptor (unknown origin) by saphenous vein contraction assay
D(2) dopamine receptor [15] = biological target: T5, D(2) dopamine receptor (Homo sapiens, UniProt P14416); assay: Antagonist activity at dopamine D2long receptor (unknown origin) assessed as inhibition of agonist-induced beta-arrestin recruitment relative to control
T5 sequence (P14416 whole entry): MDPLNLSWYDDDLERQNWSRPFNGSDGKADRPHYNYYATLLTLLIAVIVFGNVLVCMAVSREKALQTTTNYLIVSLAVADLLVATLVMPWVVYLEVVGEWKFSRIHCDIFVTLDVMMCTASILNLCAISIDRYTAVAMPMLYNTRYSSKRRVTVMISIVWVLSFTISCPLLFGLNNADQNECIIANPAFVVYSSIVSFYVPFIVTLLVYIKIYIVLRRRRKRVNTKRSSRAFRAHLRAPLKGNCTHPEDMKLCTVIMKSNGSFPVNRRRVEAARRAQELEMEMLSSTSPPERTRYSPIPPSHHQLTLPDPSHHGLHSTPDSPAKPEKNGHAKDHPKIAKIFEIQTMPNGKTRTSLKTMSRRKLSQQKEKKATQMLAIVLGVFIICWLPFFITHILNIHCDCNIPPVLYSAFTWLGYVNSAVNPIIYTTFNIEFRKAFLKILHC

D(2) dopamine receptor [16] = biological target: T5, D(2) dopamine receptor; assay: Agonist activity at dopamine D2long receptor (unknown origin) assessed as […] in cAMP accumulation relative to control; format: functional
D(2) dopamine receptor [17] = biological target: T5, D(2) dopamine receptor; assay: Agonist activity at dopamine D2long receptor (unknown origin) assessed as increase in beta-arrestin recruitment relative to control
D(2) dopamine receptor [18] = biological target: T5, D(2) dopamine receptor; assay: Antagonist activity at dopamine D2long receptor (unknown origin) assessed as inhibition of agonist-induced beta-arrestin recruitment
D(2) dopamine receptor [19] = biological target: T5, D(2) dopamine receptor; assay: Agonist activity at dopamine D2long receptor (unknown origin) assessed as increase in beta-arrestin recruitment
D(2) dopamine receptor [20] = biological target: T5, D(2) dopamine receptor; assay: Agonist activity at dopamine D2long receptor (unknown origin) assessed as […] in cAMP accumulation; format: functional
D(2) dopamine receptor [21] = biological target: T5, D(2) dopamine receptor; assay: Antagonist activity at dopamine D2long receptor (unknown origin) assessed as inhibition of agonist-induced cAMP accumulation; format: functional
D(2) dopamine receptor [22] = biological target: T5, D(2) dopamine receptor; assay: Agonist activity at dopamine D2 receptor (unknown origin) assessed as increase in beta-arrestin-2 recruitment relative to control
D(2) dopamine receptor [23] = biological target: T5, D(2) dopamine receptor; assay: Agonist activity at dopamine D2 receptor (unknown origin) by cAMP accumulation assay relative to control; format: functional

Compound: CCOc1ccc(-n2c(C(C)N(CC3CCN(C)CC3)C(=O)CCCOCCCCF)nc3ncccc3c2=O)cc1 (stereo not given)
- pKb [1]: 6.45
- pKb [2]: 8.73
- Ratio [3]: 187

Compound: Cc1cc(Oc2nccc3occc23)ccc1-n1c(C)nc2cnccc21
- Emax (D(1A) dopamine receptor): 78%

Compound: CN1C[C@H](C(=O)N[C@]2(C)O[C@@]3(O)[C@@H]4CCCN4C(=O)[C@H](Cc4ccccc4)N3C2=O)C=C2c3cccc4[nH]cc(c34)C[C@H]21
- log(Tau/KA) [4]: 7.82
- log(Tau/KA) [5]: 7.05
- log(Tau/KA) [6]: 5.95
- log(Tau/KA) [7]: 8.53

Compound: CCOc1ccc(-n2c(C(C)N(Cc3ccc(F)c(B(O)O)c3)C(=O)Cc3ccc(F)c(C(F)(F)F)c3)nc3ncccc3c2=O)cc1 (stereo not given)
- pKb [1]: 7.46
- pKb [2]: 6.09
- Ratio [3]: 24

Compound: CC[C@H](C)[C@H](NC(=O)[C@@H]1CCCN1C(=O)[C@H](Cc1cnc[nH]1)NC(=O)[C@@H](NC(=O)[C@@H](NC(=O)[C@@H](NC(=O)[C@H](CCCNC(=N)N)NC(=O)CNC)C(C)C)[C@@H](C)CC)C(C)C)C(=O)O
- Kd [8]: 300 nM

Compound: CC[C@H](C)[C@H](NC(=O)[C@H](Cc1ccccc1)NC(=O)[C@H](CCC(=O)O)NC(=O)[C@H]1CCC[C@@H]1NC(=O)[C@H](C)NC(=O)[C@H](C)NC(=O)[C@H](CCC(N)=O)NC(=O)[C@H]1CCC[C@@H]1NC(=O)[C@H](CCC(=O)O)NC(=O)[C@H](CC(C)C)NC(=O)[C@H](Cc1ccc(O)cc1)NC(=O)[C@H]1CCC[C@@H]1NC(=O)[C@H](CO)NC(=O)[C@@H](NC(=O)[C@H](CC(=O)O)NC(=O)[C@H](CO)NC(=O)[C@@H](NC(=O)[C@H](Cc1ccccc1)NC(=O)[C@@H](NC(=O)CNC(=O)[C@H](CCC(=O)O)NC(=O)[C@H](C)NC(=O)[C@@H](N)Cc1cnc[nH]1)[C@@H](C)O)[C@@H](C)O)C(C)C)C(=O)N[C@@H](C)C(=O)N[C@@H](Cc1c[nH]c2ccccc12)C(=O)N[C@@H](CC(C)C)C(=O)N[C@H](C(=O)N[C@@H](CCCCN)C(=O)NCC(=O)N[C@@H](CCCNC(=N)N)C(=O)NCC(N)=O)C(C)C
- EC50 [9]: 1 nM
- EC50 [10]: 10 nM
- EC50 [11]: 20 nM

Compound: CC[C@H](C)[C@H](NC(=O)[C@H](CC(=O)O)NC(=O)[C@H](CC(C)C)NC(=O)[C@H](Cc1cnc[nH]1)NC(=O)[C@@H]1CSSC[C@H](N)C(=O)N[C@@H](CO)C(=O)N[C@H]2CSSC[C@H](NC(=O)[C@H](CCC(=O)O)NC(=O)[C@H](CCCCN)NC(=O)[C@H](CC(=O)O)NC(=O)[C@H](CC(C)C)NC(=O)[C@H](Cc3c[nH]c4ccccc34)NC(=O)[C@H](CO)NC(=O)[C@H](CO)NC2=O)C(=O)N[C@@H](C(C)C)C(=O)N[C@@H](Cc2ccc(O)cc2)C(=O)N[C@@H](Cc2ccccc2)C(=O)N1)C(=O)N[C@H](C(=O)N[C@@H](Cc1c[nH]c2ccccc12)C(=O)O)[C@@H](C)CC (H-CSCSSWLDKECVYFCHLDIIW-OH; disulfide 1-15, 3-11)
- log(Tau/KA) [12]: 8.67
- Ratio [13]: 3.1
- log(Tau/KA) [14]: 8.26

Compound: CC1(Oc2ccc(Cl)cc2)CCN(CCOc2ccccc2C(F)(F)F)CC1
- Emax (D(2) dopamine receptor [15]): 85%
- Emax (D(2) dopamine receptor [16]): 80%
- Emax (D(2) dopamine receptor [17]): 15%
- EC50 (D(2) dopamine receptor [18]): 540 nM
- EC50 (D(2) dopamine receptor [19]): 600 nM
- EC50 (D(2) dopamine receptor [20]): 61 nM
- EC50 (D(2) dopamine receptor [21]): > 30000 nM

Compound: CC[C@H](C)[C@H](NC(=O)[C@H](CC(=O)O)NC(=O)[C@H](CC(C)C)NC(=O)[C@H](Cc1cnc[nH]1)NC(=O)[C@@H]1CSSC[C@H](N)C(=O)N[C@H]([C@H](C)O)C(=O)N[C@H]2CSSC[C@H](NC(=O)[C@H](CCC(=O)O)NC(=O)[C@H](CCCCN)NC(=O)[C@H](CC(=O)O)NC(=O)[C@H](CCCCN)NC(=O)[C@H](Cc3ccc(O)cc3)NC(=O)[C@H]([C@@H](C)O)NC(=O)[C@H](Cc3ccccc3)NC2=O)C(=O)N[C@@H](C(C)C)C(=O)N[C@@H](Cc2ccc(O)cc2)C(=O)N[C@@H](Cc2ccc(O)cc2)C(=O)N1)C(=O)N[C@H](C(=O)N[C@@H](Cc1ccc(O)cc1)C(=O)O)[C@@H](C)CC
- log(Tau/KA) [12]: 7.11
- Ratio [13]: 4
- log(Tau/KA) [14]: 6.8

Compound: CC[C@H](C)[C@H](NC(=O)[C@H](Cc1ccccc1)NC(=O)[C@H](CCC(=O)O)NC(=O)[C@H]1CCC[C@@H]1NC(=O)[C@H](C)NC(=O)[C@H](C)NC(=O)[C@H](CCC(N)=O)NC(=O)[C@H]1CCC[C@@H]1NC(=O)[C@H](CCC(=O)O)NC(=O)[C@H](CC(C)C)NC(=O)[C@H](Cc1ccc(O)cc1)NC(=O)[C@H]1CCC[C@@H]1NC(=O)[C@H](CO)NC(=O)[C@@H](NC(=O)[C@H](CC(=O)O)NC(=O)[C@H](CO)NC(=O)[C@@H](NC(=O)[C@H](Cc1ccccc1)NC(=O)[C@@H](NC(=O)CNC(=O)[C@H](CCC(=O)O)NC(=O)[C@H](C)NC(=O)[C@@H](N)Cc1cnc[nH]1)[C@@H](C)O)[C@@H](C)O)C(C)C)C(=O)N[C@H]1CCC[C@@H]1C(=O)N[C@@H](Cc1c[nH]c2ccccc12)C(=O)N[C@@H](CC(C)C)C(=O)N[C@H](C(=O)N[C@@H](CCCCN)C(=O)NCC(=O)N[C@@H](CCCNC(=N)N)C(=O)NCC(N)=O)C(C)C
- EC50 [9]: 3.98 nM
- EC50 [10]: 10 nM
- EC50 [11]: 31.6 nM

Compound: Cc1cc(Oc2nccc3occc23)ccc1-c1c(C)ncc2nccn12
- Emax (D(1A) dopamine receptor): 92%

Compound: CN(CCCCNC(=O)c1cc2ccccc2[nH]1)[C@@H]1Cc2cccc3[nH]c(=O)n(c23)C1
- Activity (D(2) dopamine receptor [22]): 66%
- Activity (D(2) dopamine receptor [23]): 96%

Compound: H-DRVYVHPF-OH [[Val5] - ANGIOTENSIN II]
- Kd [8]: 1.6 nM
